Assay results taken from paper PMC11714206, “Massively Parallel Screening of Toll/Interleukin‐1 Receptor (TIR)‐Derived Peptides Reveals Multiple Toll‐Like Receptors (TLRs)‐Targeting Immunomodulatory Peptides” (Advanced Science, 2024).
Where “and” joins values, the source holds several entries; their conditions need not be identical. Equal values may be shown once.

Target: T1, MAL^TIR (Homo sapiens, UniProt P58753)
T1 construct: MAL (residues 79–221); 6xHis; made in house; host or cells: E. coli BL21 (DE3)
Experiment: T‐Surf phage library (P8 and P3) selection against MAL^TIR, four rounds, NGS read counts
Type: binding
Conditions: for P3_MAL Rank (after) / P3_MAL Rank (before): P3 library; for P8_MAL Rank (after) / P8_MAL Rank (before): P8 library; for Population: 4th round of selection against MAL TIR, share of NGS reads
How it was run: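 Coat TIR domain 5 µg mL^−1 overnight; block 0.2% BSA/PBS 1 h, 4 °C; add phage library 1 h, RT; wash ×4 PBS/0.5% Tween‐20; elute 100 mM HCl, neutralize Tris; amplify in TG1, PEG‐precipitate. Repeat to round 4; barcode PCR, NovaSeq, count reads.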

[1] = selection against MAL TIR, rank by count after grouping
[2] = selection against MAL TIR, rank by count before grouping
[3] = selection against MAL, rank after grouping
[4] = selection against MAL, rank before grouping
[5] = 4R selection against MAL, rank after grouping
[6] = 4R selection against MAL, rank before grouping
[7] = P8_MAL: rank by count after grouping
[8] = P8_MAL: rank by count before grouping
[9] = P3_MAL: rank by count after grouping
[10] = P3_MAL: rank by count before grouping
[11] = selection against MAL, rank by count after grouping
[12] = selection against MAL, rank by count before grouping
[13] = P8_MAL pool: P8 T-Surf phage library
[14] = P3_MAL pool: P3 T-Surf phage library

T1 sequence (P58753 79-221): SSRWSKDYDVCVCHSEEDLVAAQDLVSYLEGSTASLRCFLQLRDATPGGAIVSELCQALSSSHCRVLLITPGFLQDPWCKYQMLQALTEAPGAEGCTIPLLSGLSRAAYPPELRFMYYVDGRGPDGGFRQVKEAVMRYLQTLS

## SSFRDGLWRLPELSKK
[1]
  P3_MAL Rank (after): 246
[2]
  P3_MAL Rank (before): 3130

## PNLRNKVLNYLLRTKT
[3]
  P3_MAL Rank (after): 574
[4]
  P3_MAL Rank (before): 2748

## KWFWEKLRYALTYRPAT
[5]
  P3_MAL Rank (after): 602
[6]
  P3_MAL Rank (before): 3516

## KRISEQLRPALNVRRP
[5]
  P3_MAL Rank (after): 665
[6]
  P3_MAL Rank (before): 3633

## RNLVAYLLQALANKGI
[7]
  Rank (after): 451
[8]
  Rank (before): 2244

## WFYERMVRLILRDTKV
[1]
  P8_MAL Rank (after): 247
[2]
  P8_MAL Rank (before): 1291

## WFMMKFRTVLGKPTM
[1]
  P8_MAL Rank (after): 216
[2]
  P8_MAL Rank (before): 760

## AFFCTHLKSVLDNPTM
[5]
  P8_MAL Rank (after): 623
[6]
  P8_MAL Rank (before): 1589

## KWFWDKLIYPLSRNPQ
[1]
  P3_MAL Rank (after): 239
[2]
  P3_MAL Rank (before): 3510

## NQWRNALSSIASRP
[5]
  P3_MAL Rank (after): 625
[6]
  P3_MAL Rank (before): 3351

## YALTGQLHRYLVQRGV
[9]
  Rank (after): 151
[10]
  Rank (before): 1485

## AFSNNEYKCVETALMN
[9]
  Rank (after): 467
[10]
  Rank (before): 1806

## AFLYAFLINLTHPTNI
[7]
  Rank (after): 142
[8]
  Rank (before): 1812

## RGFLSHLRHHLQVKEQ
[11]
  P3_MAL Rank (after): 733
[12]
  P3_MAL Rank (before): 2370

## HHNGSYCEALAEHKER
[3]
  P3_MAL Rank (after): 486
[4]
  P3_MAL Rank (before): 2815

## YFLHFLLFSRPQTQYI
[7]
  Rank (after): 137
[8]
  Rank (before): 1458

## CVYRPSASLSGAAWR
[3]
  P3_MAL Rank (after): 568
[4]
  P3_MAL Rank (before): 1321

## PNLGTKTLNYLTRTKT
[11]
  P3_MAL Rank (after): 730
[12]
  P3_MAL Rank (before): 2666

## RWFLDELVKIMERKRT
[1]
  P8_MAL Rank (after): 218
[2]
  P8_MAL Rank (before): 926

## TFLCHLYSTLVQARIH
[7]
  Rank (after): 402
[8]
  Rank (before): 2546

## YAFTRHLHRYLVQSGV
[9]
  Rank (after): 147
[10]
  Rank (before): 1468

## VRHSFAGYRYDALNRL
[1]
  P3_MAL Rank (after): 197
[2]
  P3_MAL Rank (before): 1698

## WFFERLVKLILRDTKV
[11]
  P8_MAL Rank (after): 712
[12]
  P8_MAL Rank (before): 1114

## TFLDRLYNPLVHAGIH
[7]
  Rank (after): 400
[8]
  Rank (before): 2621

## AFLYTFLINLTHPPI
[7]
  Rank (after): 190
[8]
  Rank (before): 1854

## LFFWESLKQLLRRAGL
[1]
  P8_MAL Rank (after): 252
[2]
  P8_MAL Rank (before): 2096

## RGFLSHLSNLLQAKDH
[1]
  P3_MAL Rank (after): 205
[2]
  P3_MAL Rank (before): 2392

## RHHRGPLGSDLQYHME
[3]
  P3_MAL Rank (after): 521
[4]
  P3_MAL Rank (before): 2572

## YAFTGHLHGSLLQRRV
[5]
  P3_MAL Rank (after): 670
[6]
  P3_MAL Rank (before): 1376

## LFYERLVSLILRHTRV
[5]
  P8_MAL Rank (after): 624
[6]
  P8_MAL Rank (before): 1103

## AFFWEQLRTVLDHVNDV
[7]
  Rank (after): 141
[8]
  Rank (before): 836

## RNIVAYPFQALANIGI
[7]
  Rank (after): 437
[8]
  Rank (before): 2252

## YAFTGHLHRFWCSVA
[9]
  Rank (after): 158
[10]
  Rank (before): 727

## AFFWAQLKSVLGNRTM
[13]
  Population: 0.00309%

## SNLRPKVMNYLMRTKT
[11]
  P3_MAL Rank (after): 756
[12]
  P3_MAL Rank (before): 1328

## WFYDRLVSLFLRDPKV
[7]
  Rank (after): 476
[8]
  Rank (before): 1140

## WFFERLVRPILRGTQG
[3]
  P8_MAL Rank (after): 559
[4]
  P8_MAL Rank (before): 1113

## AWFRESLSRRLKGLLT
[11]
  P3_MAL Rank (after): 708
[12]
  P3_MAL Rank (before): 1810

## TFLGFLYIALVQAGFL
[11]
  P8_MAL Rank (after): 724
[12]
  P8_MAL Rank (before): 2549

## EYRNESKFIWDIINAI
[7]
  Rank (after): 386
[8]
  Rank (before): 2047

## AFFWEQLRTALGNPTM
[11]
  P8_MAL Rank (after): 704
[12]
  P8_MAL Rank (before): 1698

## CFYQRLVSLILHDTKV
[1]
  P8_MAL Rank (after): 256
[2]
  P8_MAL Rank (before): 1108

## DLFLSKLSQHLLKREK
[9]
  Rank (after): 455
[10]
  Rank (before): 1861

## PFLVHQYNEALQADSH
[11]
  P8_MAL Rank (after): 695
[12]
  P8_MAL Rank (before): 2330

## FLNFRGLDVRNYFLGH
[3]
  P8_MAL Rank (after): 560
[4]
  P8_MAL Rank (before): 1088

## LFLWESLKHLLRSDSL
[11]
  P8_MAL Rank (after): 719
[12]
  P8_MAL Rank (before): 2147

## YAFTGHLHRYLVRRGV
[14]
  Population: 0.00338%

## AFLGTFLIKLMHATIY
[3]
  P8_MAL Rank (after): 570
[4]
  P8_MAL Rank (before): 1906

## AFFWPQLKSVLGNPTK
[7]
  Rank (after): 146
[8]
  Rank (before): 1715

## KEVEGWRQALEKAGKL
[9]
  Rank (after): 118
[10]
  Rank (before): 386

## RKFVAYPFQALANKGI
[11]
  P8_MAL Rank (after): 703
[12]
  P8_MAL Rank (before): 2255

## SAAYDDFWDRLIRMIE
[7]
  Rank (after): 173
[8]
  Rank (before): 1007

## RLLKWKDALYEAANLS
[9]
  Rank (after): 110
[10]
  Rank (before): 342

## RGFLSNLGHHLQAKDH
[9]
  Rank (after): 440
[10]
  Rank (before): 2401

## AFFWAQLKSELGNPTM
[13]
  Population: 0.00463%

## YTALTKSGVHAFRDND
[9]
  Rank (after): 475
[10]
  Rank (before): 1552

## DAEDMFWTQLREALDA
[5]
  P8_MAL Rank (after): 602
[6]
  P8_MAL Rank (before): 1987

## WCYERRVSLILRETKV
[7]
  Rank (after): 385
[8]
  Rank (before): 1403

## AFLYAFLISLTHTTTF
[3]
  P8_MAL Rank (after): 571
[4]
  P8_MAL Rank (before): 1798

## AFLYTFLIILPIRPNF
[5]
  P8_MAL Rank (after): 589
[6]
  P8_MAL Rank (before): 1835

## YAFTGHPHRYLVQRGV
[14]
  Population: 0.00564%

## WLYERLVSLILRDTKV
[13]
  Population: 0.00402% and 0.00371%

## WLYERLVSLSLRDTKV
[7]
  Rank (after): 168
[8]
  Rank (before): 1429

## SSFRVGLCRLMALIQQ
[11]
  P3_MAL Rank (after): 685
[12]
  P3_MAL Rank (before): 3125

## AFLYNFLLNLTHKPTF
[5]
  P8_MAL Rank (after): 671
[6]
  P8_MAL Rank (before): 1891

## RLLKWQQAMHQFHRWV
[3]
  P3_MAL Rank (after): 563
[4]
  P3_MAL Rank (before): 2488

## GLSWGPYEWWMGLYDA
[11]
  P8_MAL Rank (after): 716
[12]
  P8_MAL Rank (before): 1572

## NFLGLLYNELVQAGLH
[1]
  P8_MAL Rank (after): 259
[2]
  P8_MAL Rank (before): 2675

## RNFWRIFFRRWPIKG
[11]
  P8_MAL Rank (after): 714
[12]
  P8_MAL Rank (before): 2184

## RGFREGLWRLLELSKK
[14]
  Population: 0.00902%
[9]
  Rank (after): 103
[10]
  Rank (before): 111

## SSFREGLWRLLDLSKQ
[11]
  P3_MAL Rank (after): 732
[12]
  P3_MAL Rank (before): 3144

## YAFTGYLHRYLVQRGV
[14]
  Population: 0.00827%

## HQWRNALTAAANLSGW
[14]
  Population: 0.00902%

## PFFWEHLRHLLRSHTL
[7]
  Rank (after): 480
[8]
  Rank (before): 2325

## ESILDQLRRRSQSIAN
[5]
  P3_MAL Rank (after): 591
[6]
  P3_MAL Rank (before): 2042

## WFWEKLRYALTAAANLSGW
[9]
  Rank (after): 149
[10]
  Rank (before): 501

## HQASWNRLWEQLKPRT
[3]
  P3_MAL Rank (after): 505
[4]
  P3_MAL Rank (before): 2891

## AFFWAQVKSVLGNTTM
[1]
  P8_MAL Rank (after): 264
[2]
  P8_MAL Rank (before): 1603

## AFLYTFLINLTHPQF
[1]
  P8_MAL Rank (after): 275
[2]
  P8_MAL Rank (before): 1852

## KMQQWQDALYEAANLS
[11]
  P3_MAL Rank (after): 691
[12]
  P3_MAL Rank (before): 3654

## IFCISCCLAVRKPSI
[1]
  P8_MAL Rank (after): 241
[2]
  P8_MAL Rank (before): 2434
